Measured values as given in patent publication US7053070B2, “Pyrido[2,3-d]pyrimidine-2,7-diamine kinase inhibitors” (Warner-Lambert Company, priority 2000, dated 2006).
Structures can show the parent of a compound that is named as a salt.

What was measured:
cdk1/cyclinB = cdk1/cyclinB (Homo sapiens, UniProt P06493); assay: Cyclin dependent kinase 1 assay (cdk1/cyclinB), 32P incorporation, filter plate; assay type: biochemical; settings: retinoblastoma substrate, 12 mM ATP, 25° C., 15 minutes; read-out: Inhibition of Cdks: IC50 Cdk1/B
Procedure: (§1) Cyclin Dependent Kinase 1 and 2 Assays (cdk1/cyclinB, cdk2/cyclinA, cdk2/cyclinE)
(§2) Enzyme assays for IC50 determinations and kinetic evaluation are performed in a 96-well filter plate (Millipore MADVN6550) in a total volume of 0.1 mL of 20 mM TRIS (tris[hydroxymethyl]aminomethane), at pH 7.4, 50 mM NaCl, 1 mM dithiothreitol, 10 mM MgCl2, […] containing 0.25 μCi of [^32P]ATP, 20 ng of enzyme (either cdk1/B, cdk2/A, or cdk2E), 1 μg retinoblastoma and appropriate dilutions of the particular invention compound. All components except the ATP are added to the wells, and the plate is placed on a plate mixer for 2 minutes. The reaction is begun by addition of [^32P]ATP, and the plate is incubated at 25° C. for 15 minutes. The reaction is terminated by addition of 0.1 mL of 20% TCA. The plate is kept at 4° C. for at least 1 hour to allow the substrate to precipitate. The wells are then washed 5 times with 0.2 mL of 10% TCA and ^32P incorporation determined with a beta plate counter (Wallac Inc., Gaithersburg, Md.).

cdk2/cyclinA = cdk2/cyclinA (Homo sapiens, UniProt P24941); assay: Cyclin dependent kinase 2 assay (cdk2/cyclinA), 32P incorporation, filter plate; assay type: biochemical; settings: retinoblastoma substrate, 12 mM ATP, 25° C., 15 minutes; read-out: Inhibition of Cdks: IC50 Cdk2/A
Procedure: as §1, §2

cdk2/cyclinE = cdk2/cyclinE (Homo sapiens, UniProt P24941); assay: Cyclin dependent kinase 2 assay (cdk2/cyclinE), 32P incorporation, filter plate; assay type: biochemical; settings: retinoblastoma substrate, 12 mM ATP, 25° C., 15 minutes; read-out: Inhibition of Cdks: IC50 Cdk2/E
Procedure: as §1, §2

cdk4/cyclinD = cdk4/cyclinD (Homo sapiens, UniProt P11802); assay: Cyclin Dependent Kinase 4 (cdk-4) Assay, 32P incorporation, filter plate; assay type: biochemical; settings: retinoblastoma substrate, 25 μM ATP, 25° C., 15 minutes; read-out: Inhibition of Cdks: IC50 Cdk4D
Procedure: Cyclin Dependent Kinase 4 (cdk-4) Assay
Enzyme assays for IC50 determinations and kinetic evaluation are performed in 96-well filter plates (Millipore MADVN6550). The total volume is 0.1 mL containing a final concentration of 20 mM TRIS (tris[hydroxymethyl]aminomethane), at pH 7.4, 50 mM NaCl, 1 mM dithiothreitol, 10 mM MgCl2, 25 μM ATP containing 0.25 μCi of [^32P]ATP, 20 ng of cdk4, 1 μg of retinoblastoma, and appropriate dilutions of a compound of the present invention. All components except the ATP are added to the wells, and the plate is placed on a plate mixer for 2 minutes. The reaction is started by adding [^32P]ATP, and the plate is incubated at 25° C. for 15 minutes. The reaction is terminated by addition of 0.1 mL of 20% trichloroacetic acid (TCA). The plate is kept at 4° C. for at least 1 hour to allow the substrate to precipitate. The wells are then washed 5 times with 0.2 mL of 10% TCA and ^32P incorporation is determined with a beta plate counter (Wallac Inc., Gaithersburg, Md.).

Chain of cdk4/cyclinD (P11802 whole entry, species assumed): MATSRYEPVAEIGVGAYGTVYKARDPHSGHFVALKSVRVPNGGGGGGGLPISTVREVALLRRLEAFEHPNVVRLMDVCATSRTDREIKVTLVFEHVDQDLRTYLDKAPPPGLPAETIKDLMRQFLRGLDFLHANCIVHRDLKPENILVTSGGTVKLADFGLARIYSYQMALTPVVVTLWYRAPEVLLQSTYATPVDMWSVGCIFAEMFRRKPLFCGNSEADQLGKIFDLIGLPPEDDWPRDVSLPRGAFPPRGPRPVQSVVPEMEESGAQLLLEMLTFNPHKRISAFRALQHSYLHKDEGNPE
Chain of cdk4/cyclinD (P24385 whole entry partner, species assumed): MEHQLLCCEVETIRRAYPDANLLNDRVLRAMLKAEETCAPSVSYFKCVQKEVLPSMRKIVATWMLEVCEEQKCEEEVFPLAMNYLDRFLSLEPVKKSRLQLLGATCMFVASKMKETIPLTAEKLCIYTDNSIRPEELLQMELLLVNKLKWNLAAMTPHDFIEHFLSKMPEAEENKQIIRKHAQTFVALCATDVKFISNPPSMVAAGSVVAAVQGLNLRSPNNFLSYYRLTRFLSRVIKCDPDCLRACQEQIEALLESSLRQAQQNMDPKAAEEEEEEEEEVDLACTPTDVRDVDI
Chain of cdk1/cyclinB (P06493 whole entry, species assumed): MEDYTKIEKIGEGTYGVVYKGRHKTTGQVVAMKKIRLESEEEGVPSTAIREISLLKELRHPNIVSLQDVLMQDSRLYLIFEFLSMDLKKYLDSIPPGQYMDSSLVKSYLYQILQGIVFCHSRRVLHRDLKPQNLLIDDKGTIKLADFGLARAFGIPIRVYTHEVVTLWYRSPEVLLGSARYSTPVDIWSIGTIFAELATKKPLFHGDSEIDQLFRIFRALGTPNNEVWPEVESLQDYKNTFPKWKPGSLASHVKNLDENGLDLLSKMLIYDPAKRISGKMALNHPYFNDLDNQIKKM
Chain of cdk1/cyclinB (P14635 whole entry partner, species assumed): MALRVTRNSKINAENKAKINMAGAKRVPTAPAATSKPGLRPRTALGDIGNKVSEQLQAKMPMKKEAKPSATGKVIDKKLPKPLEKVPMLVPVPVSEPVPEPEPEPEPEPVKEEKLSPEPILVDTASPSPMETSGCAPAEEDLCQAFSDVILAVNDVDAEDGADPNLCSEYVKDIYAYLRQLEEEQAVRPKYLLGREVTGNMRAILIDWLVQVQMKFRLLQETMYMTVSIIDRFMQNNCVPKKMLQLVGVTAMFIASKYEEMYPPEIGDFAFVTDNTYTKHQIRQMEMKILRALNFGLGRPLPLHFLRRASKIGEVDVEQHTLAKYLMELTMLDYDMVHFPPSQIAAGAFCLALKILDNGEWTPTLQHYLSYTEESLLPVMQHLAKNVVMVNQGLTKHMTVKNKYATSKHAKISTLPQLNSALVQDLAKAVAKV

melting point | IC50 (cdk1/cyclinB) [nM] | IC50 (cdk2/cyclinA) [nM] | IC50 (cdk2/cyclinE) [nM] | IC50 (cdk4/cyclinD) [nM] | SMILES
215 °C (dec.) | – | – | – | – | CC(C)(C)NC(=O)Nc1ccc2cnc(Nc3ccc(N4CCNCC4)cc3)nc2n1 (as salt: salt) [Compound 1, 1-tert-Butyl-3-[2-(4-piperazin-1-yl-phenylamino)-pyrido[2,3-d]pyrimidin-7-yl]-urea]
200 °C (dec.) | – | – | – | – | O=C(Nc1ccc2cnc(Nc3ccc(N4CCNCC4)cc3)nc2n1)NC1CCCCC1 (as salt: salt) [Compound 9, 1-Cyclohexyl-3-[2-(4-piperazin-1-yl-phenylamino)-pyrido[2,3-d]pyrimidin-7-yl]-urea]
190 °C (dec.) | – | – | – | – | CC(C)NC(=O)Nc1ccc2cnc(Nc3ccc(N4CCNCC4)cc3)nc2n1 (as salt: salt) [Compound 48, 1-Isopropyl-3-[2-(4-piperazin-1-yl-phenylamino)-pyrido[2,3-d]pyrimidin-7-yl]-urea]
210 to 213 °C (dec.) | – | – | – | – | O=C(Nc1ccc2cnc(Nc3ccc(N4CCNCC4)cc3)nc2n1)NC1CCCC1 (as salt: salt) [Compound 51, 1-Cyclopentyl-3-[2-(4-piperazin-1-yl-phenylamino)-pyrido[2,3-d]pyrimidin-7-yl]-urea]
– | 257 | 113 | 98 | 18 | CC(C)NC(=O)Nc1ccc2cnc(Nc3ccc(N4CCNCC4)cc3)nc2n1 [Compound 48, 1-Isopropyl-3-[2-(4-piperazin-1-yl-phenylamino)-pyrido[2,3-d]pyrimidin-7-yl]-urea]
– | 53 | 24 | 30 | 4 | O=C(Nc1ccc2cnc(Nc3ccc(N4CCNCC4)cc3)nc2n1)NC1CCCC1 [Compound 51, 1-Cyclopentyl-3-[2-(4-piperazin-1-yl-phenylamino)-pyrido[2,3-d]pyrimidin-7-yl]-urea]
– | > 5000 | > 5000 | > 5000 | 70 | CC(C)(C)NC(=O)Nc1nc2nc(Nc3ccc(N4CCNCC4)cc3)ncc2cc1Br [Compound 91, 1-[6-Bromo-2-(4-piperazin-1-yl-phenylamino)-pyrido[2,3-d]pyrimidin-7-yl]-3-tert-butyl-urea]
– | > 5000 | > 5000 | > 5000 | > 5000 | CNC(=O)Nc1nc2nc(Nc3ccc(N4CCNCC4)cc3)ncc2cc1Br [Compound 93, 1-[6-Bromo-2-(4-piperazin-1-yl-phenylamino)-pyrido[2,3-d]pyrimidin-7-yl]-3-methyl-urea]
– | – | – | > 5000 | 101 | C[C@@H]1CN(c2ccc(Nc3ncc4cc(Br)c(NC(=O)NC(C)(C)C)nc4n3)cc2)C[C@H](C)N1 [Compound 94, 1-{6-Bromo-2-[4-(cis-3,5-dimethyl-piperazin-1-yl)-phenylamino]-pyrido[2,3-d]pyrimidin-7-yl}-3-tert-butyl-urea]
– | – | – | > 5000 | 310 | C[C@@H]1CN(c2ccc(Nc3ncc4cc(Br)c(NC(=O)NC5CCCCC5)nc4n3)cc2)C[C@H](C)N1 [Compound 95, 1-{6-Bromo-2-[4-(cis-3,5-dimethyl-piperazin-1-yl)-phenylamino]-pyrido[2,3-d]pyrimidin-7-yl}-3-cyclohexyl-urea]
– | 265 | 153 | 415 | 35 | CC1(C)CN(c2ccc(Nc3ncc4cc(F)c(NC(=O)NC5CCCCC5)nc4n3)cc2)CCN1 [Compound 100, 1-Cyclohexyl-3-{2-[4-(3,3-dimethyl-piperazin-1-yl)-phenylamino]-6-fluoro-pyrido[2,3-d]pyrimidin-7-yl}-urea]
– | 3130 | 3590 | 4500 | 165 | C[C@@H]1CN(c2ccc(Nc3ncc4cc(F)c(NC(=O)NC(C)(C)C)nc4n3)cc2)C[C@H](C)N1 [Compound 102, 1-tert-Butyl-3-{2-[4(cis-3,5-dimethyl-piperazin-1-yl)-phenylamino]-6-fluoro-pyrido[2,3-d]pyrimidin-7-yl}-urea]
– | 1730 | 1950 | 1650 | 19 | CCN(C(=O)NC1CCCCC1)c1ccc2cnc(Nc3ccc(N4CCNCC4)cc3)nc2n1 [Compound 107, 3-Cyclohexyl-1-ethyl-1-[2-(4-piperazin-1-yl-phenylamino)-pyrido[2,3-d]pyrimidin-7-yl]-urea]
– | 2420 | 2030 | 3050 | 67 | CCN(C(=O)NC(C)(C)C)c1ccc2cnc(Nc3ccc(N4C[C@@H](C)N[C@@H](C)C4)cc3)nc2n1 [Compound 108, 3-tert-Butyl-1-{2-[4(cis-3,5-dimethyl-piperazin-1-yl)-phenylamino]-pyrido[2,3-d]pyrimidin-7-yl}-1-ethyl-urea]
– | > 5000 | > 5000 | > 5000 | 3000 | CCOC(=O)c1cc2cnc(Nc3ccc(N4CCNCC4)cc3)nc2nc1NC(=O)NC(C)(C)C [Compound 113, 7-(3-tert-Butyl-ureido)-2-(4-piperazin-1-yl-phenylamino)-pyrido[2,3-d]pyrimidine-6-carboxylic acid ethyl ester]
– | 94 | 22 | 51 | 7 | CC1(C)CN(c2ccc(Nc3ncc4ccc(NC(=O)NC5CCCCC5)nc4n3)cc2)CCN1 [Compound 115, 1-Cyclohexyl-3-{2-[4-(3,3-dimethyl-piperazin-1-yl)-phenylamino]-pyrido[2,3-d]pyrimidin-7-yl}-urea]
– | > 5000 | > 5000 | 3750 | 313 | Cc1cc2cnc(Nc3ccc(N4C[C@@H](C)N[C@@H](C)C4)cc3)nc2nc1NC(=O)NC1CCCCC1 [Compound 116, 1-Cyclohexyl-3-{2-[4-(cis-3,5-dimethyl-piperazin-1-yl)-phenylamino]-6-methyl-pyrido[2,3-d]pyrimidin-7-yl}-urea]
– | > 5000 | > 5000 | 3800 | 79 | Cc1cc2cnc(Nc3ccc(N4CCNCC4)cc3)nc2nc1NC(=O)NC(C)(C)C [Compound 118]
– | > 5000 | > 5000 | > 5000 | 1600 | Cc1cc2cnc(Nc3ccc(N4C[C@@H](C)N[C@@H](C)C4)cc3)nc2nc1NC(=O)NC(C)C [Compound 119, 1-{2-[4-(cis-3,5-Dimethyl-piperazin-1-yl)-phenylamino]-6-methyl-pyrido[2,3-d]pyrimidin-7-yl}-3-isopropyl-urea]
– | > 5000 | > 5000 | > 5000 | 1900 | Cc1cc2cnc(Nc3ccc(N4C[C@@H](C)N[C@@H](C)C4)cc3)nc2nc1NC(=O)NC1CC1 [Compound 120, 1-Cyclopropyl-3-{2-[4-(cis-3,5-dimethyl-piperazin-1-yl)-phenylamino]-6-methyl-pyrido[2,3-d]pyrimidin-7-yl}-urea]
– | > 5000 | > 5000 | > 5000 | 92 | CCc1cc2cnc(Nc3ccc(N4C[C@@H](C)N[C@@H](C)C4)cc3)nc2nc1NC(=O)NC(C)(C)C [Compound 121, 1-tert-Butyl-3-{2-[4-(cis-3,5-dimethyl-piperazin-1-yl)-phenylamino]-6-ethyl-pyrido[2,3-d]pyrimidin-7-yl}-urea]
